# According to patent US11566056B2, “Peptide and use thereof for treatment of disease of brain and nervous system” (SYLUS CO., LTD, priority 2020, dated 2023):
# Values joined by “and” are separate entries in the source; they are usually repeats but may differ in a detail not shown here. Identical values can stand only once. Ends that are not written are not given here.
# Key:
# HT-22 cells = assay: cell viability under hypoxia-reoxygenation (H/R) conditions; assay type: cell-based; set-up: cell viability under hypoxia-reoxygenation conditions / cell viability under hypoxia-reoxygenation conditions, Average: unit not given here; details: for cell viability under hypoxia-reoxygenation conditions, Average: average of 3; for cell viability under hypoxia-reoxygenation conditions: individual replicate
# Protocol: First, the degree of cell viability was confirmed. Specifically, HT-22 cells cultured on a 96-well plate or a 6-well plate for 24 hours were maintained under hypoxic condition for 18 hours in a sealed airtight container of Anaeropack (Mitsubishi Gas Company, Tokyo, Japan). The Anaeropack absorbs oxygen and generates carbon dioxide, thereby inducing a hypoxic environment. Next, reoxygenation was performed at 5% CO2 and 37° C. for 3 hours.
# Cell viability was compared when treated with SY-1, SY-2 and SY-3 of H/R cells cultured under low oxygen conditions (Hypoxia) and later cultured under oxygen conditions (Reoxygenation).
# [1] = molecular target: T1, Soluble mouse EPOR chimera protein (Mus musculus, UniProt P14753); assay: surface plasmon resonance (SPR) binding to erythropoietin receptor; details: peptide 5, 2.5 and 1.25 μM
# T1 construct: Soluble mouse EPOR chimera protein; purchased R&D Systems
# T1 sequence (P14753 25-249 limits assumed): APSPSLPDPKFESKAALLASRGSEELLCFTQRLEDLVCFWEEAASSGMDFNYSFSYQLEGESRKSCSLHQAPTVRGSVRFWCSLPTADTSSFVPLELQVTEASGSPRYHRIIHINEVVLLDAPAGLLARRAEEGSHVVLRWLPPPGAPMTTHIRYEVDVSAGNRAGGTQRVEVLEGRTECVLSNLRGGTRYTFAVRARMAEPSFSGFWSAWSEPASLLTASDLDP
# Protocol: The SPR technique uses an optical principle to measure the interaction between biomolecules in real time without a specific label, and is a system that analyzes the affinity and kinetics between two molecules, that is, Ka (association rate) and Kd (dissociation rate).
# Specifically, the real-time SPR analysis was performed using Reichert SPR Biosensor SR 7500C equipment (Reichert Inc., NY, USA). Receptor mouse EPOR chimera protein (Soluble mouse EPOR chimera protein)(R&D Systems, Minneapolis, Minn., USA) was covalently bonded to a chip (BR-1005-39, Pharmacia Biosensor AB) coated with carboxy methylated dextran matrix by an amine coupling procedure using an amine coupling kit (BR-1000-50, GE Healthcare, USA) according to the manufacturer's manual. Peptides having concentrations of 5, 2.5 and 1.25 μM according to the present disclosure and scrambled peptides were tested by flowing at a flow rate of 5 μl/minute. In addition, the experiment was independently repeated to increase the accuracy. In addition, DMSO was flowed at 5 μl/minute to normalize the signal. After sufficiently inducing the binding of the peptide of an aspect to the receptor, regeneration was induced by injecting 20 μl/minute of 25 mM acetic acid into a sensor chip.
Sequence,"cell viability under hypoxia-reoxygenation conditions, Average (HT-22 cells; 1 uM)",cell viability under hypoxia-reoxygenation conditions (HT-22 cells; 1 uM),"cell viability under hypoxia-reoxygenation conditions, Average (HT-22 cells; 2.5 uM)",cell viability under hypoxia-reoxygenation conditions (HT-22 cells; 2.5 uM),"cell viability under hypoxia-reoxygenation conditions, Average (HT-22 cells; 5 uM)",cell viability under hypoxia-reoxygenation conditions (HT-22 cells; 5 uM),ka [1],kd [1],"cell viability under H/R conditions (in words) (HT-22 cells; hypoxia 18 hours, reoxygenation 3 hours)"
LQLHVLKAVSGLRTLTMIRRALG [SY-2],0.671,0.658 and 0.673 and 0.682,0.676,0.671 and 0.667 and 0.689,0.661,0.652 and 0.677 and 0.655,32.5770,0.0506,–
LQLHVLKAVAGLRTLTMIRRALA [SY-3],0.726,0.722 and 0.736 and 0.719,0.735,0.739 and 0.741 and 0.724,0.727,0.707 and 0.732 and 0.741,25.6240,0.0554,the cell viability was the highest
LQLHVLKAVSGLRTLTTLLRALG [SY-1],0.654,0.662 and 0.657 and 0.644,0.655,0.649 and 0.663 and 0.652,0.647,0.648 and 0.653 and 0.641,31.5970,0.0446,–
